Reference: patent US11028051B2, “Tetrahydroquinoline-based bromodomain inhibitors” (St. Jude Children's Research Hospital, priority 2016, dated 2021)
Like-named read-outs stand apart in the source and are kept apart here.

Assays:
BRD2(1) = BRD2(1) (Homo sapiens (Human), UniProt P25440); test: BROMOscan KD determination; format: binding; conditions: Table 10
Excerpt: (§1) DiscoverX® can screen compounds against all ˜42 bromodomains (a service called BROMOscan) and perform follow-up KD determination. This service is considered the industrial standard for bromodomain inhibitor comparisons. […] Dots are symbolic of inhibition of the compound at this concentration; the larger the size of the dot, the greater the activity of the compound. […] Though these compounds are selective for the BET family, the selectivity within the BET family is poor. The results of a competitive binding experiment between compounds 19 (left), 41 (center), and 56 (right) (at a single concentration, 1 μM) and a control for each of the bromodomains are shown in FIG. 5.

BRD2(2) = BRD2(2) (Homo sapiens (Human), UniProt P25440); test: BROMOscan KD determination; format: binding; conditions: for [2(1)/2(2)]: BROMOscan KD ratio; for Kd: BROMOscan, Table 10
Excerpt: as §1

BRDT(2) = BRDT(2) (Homo sapiens (Human), UniProt Q58F21); test: BROMOscan KD determination; format: binding; conditions: for T(1)/T(2): BROMOscan KD ratio; for Kd: BROMOscan, Table 10
Excerpt: as §1

BRDT(1) = BRDT(1) (Homo sapiens (Human), UniProt Q58F21); test: BROMOscan KD determination; format: binding; conditions: Table 10
Excerpt: as §1

BRD3(2) = BRD3(2) (Homo sapiens (Human), UniProt Q15059); test: BROMOscan KD determination; format: binding; conditions: for 3(1)/3(2): BROMOscan KD ratio; for Kd: BROMOscan, Table 10
Excerpt: (§2) DiscoverX® can screen compounds against all ˜42 bromodomains (a service called BROMOscan) and perform follow-up KD determination. This service is considered the industrial standard for bromodomain inhibitor comparisons.

BRD3(1) = BRD3(1) (Homo sapiens (Human), UniProt Q15059); test: BROMOscan KD determination; format: binding; conditions: Table 10
Excerpt: as §2

BRD4(1) = BRD4(1) (Homo sapiens (Human), UniProt O60885); test: BROMOscan KD determination; format: binding; conditions: Table 10
Excerpt: as §2

BRD4(2) = BRD4(2) (Homo sapiens (Human), UniProt O60885); test: BROMOscan KD determination; format: binding; conditions: for 4(1)/4(2): BROMOscan KD ratio; for Kd: BROMOscan, Table 10
Excerpt: as §2

BRD4-BD2 = BRD4-BD2 (Homo sapiens (Human), UniProt O60885); test: competitive TR-FRET assay, BET-BD with acetylated peptide ligand; format: binding; conditions: BRD4-BD2; Table 11 additional modifications; read-out: 4.2 EC50
Procedure: (§3) Inhibitor potency was determined using a competitive TR-FRET assay as detailed herein, measuring interaction of the respective BET-BD with an acetylated peptide ligand (Table 2).

BRD3-BD1 = BRD3-BD1 (Homo sapiens (Human), UniProt Q15059); test: as above; format: binding
Procedure: as §3

BRDT = BRDT (Homo sapiens, UniProt Q58F21); test: as above; format: binding
Procedure: as §3

BRD2-BD2 = BRD2-BD2 (Homo sapiens (Human), UniProt P25440); test: as above; format: binding; conditions: for 2.1/2.2: ratio of BRD2-BD1 EC50 to BRD2-BD2 EC50 (selectivity)
Procedure: as §3

BRD4-BD1 = BRD4-BD1 (Homo sapiens (Human), UniProt O60885); test: as above; format: binding; conditions: BRD4-BD1; Table 11 additional modifications; read-out: 4.1 EC50
Procedure: as §3

BRD2-BD1 = BRD2-BD1 (Homo sapiens (Human), UniProt P25440); test: as above; format: binding
Procedure: as §3

[1] = tested on: c-Myc expression in HDMB03 cells; test: c-Myc expression inhibition, high content microscopy (HCM); format: cell-based, human; conditions: Homo sapiens, read-out: EC50 (μM) Myc-inhibition
Procedure: 3000 human G3 medulloblastoma or 2000 mouse SHH medulloblastoma cells per well were plated into 384-well plates (6007710, Perkin Elmer) in 30 μL of supplemented neurobasal medium using a Wellmate automated dispenser (Thermo Matrix). After 24 hours, 125 nl of compound was transferred via pin tool, resulting in a final drug concentration from 2 nM to 40 μM. 72 hours after adding the drug, the plates were fixed with 4% formaldehyde for 20 min. After fixation the cells were then washed 3 times with 75 μl of PBS. The cells were then permeabilized with 0.1% Triton-X 100 for 15 minutes at 25° C. and blocked using 1% BSA in PBS for 1 hour at 25° C. The primary antibody against c-Myc Ab (#9402, Cell Signaling) at a 1:400 dilution was diluted in 1% BSA in PBS. This mixture was added to each well before incubation overnight at 4° C. Each well was then washed 3 times with PBS using a Biotek ELX405 Select plate washer, and incubated for 1 hour at 25° C. with a solution containing 1/400 goat α-rabbit-Alexa-488 (4412S, Cell Signaling) and 1 μM Hoechst 33342 to detect nuclear material (H3570, Molecular Probes). Two images were captured of each well at 10× using a GE Healthcare InCell 6000 at 405 nM to detect nuclear staining and 488 nM to detect c-Myc. All data were analyzed using the multi-target analysis algorithm of the GE InCell Analyzer Workstation software. The number of nuclear objects in each well, as well as all nuclear measurements, was determined through nuclear masks over the Hoechst staining. C-Myc staining was then measured using top-hat segmentation in the entire cell.

HDMB03 cells = test: cell viability, CellTiter-Glo; format: cell-based, human; conditions: Homo sapiens, read-out: EC50 (μM) HDMB03
Procedure: Human G3 medulloblastoma or mouse SHH medulloblastoma cells were grown as neurospheres in supplemented neurobasal medium, as previously described (Kawauchi et al., 2012.)
(§4) After 7 days of treatment, an equal volume of CellTiter-Glo reagent (G7572, Promega) was added and the luminescence signal was measured using an automated Envision plate reader (Perkin-Elmer). Luminescence data were normalized by log10 transformation prior to calculating the percent inhibition using the following equation:
(§5) 100*(negative control mean −compound value)/(negative control mean −positive control mean).
High-throughput assay data were analyzed using Robust Interpretation of Screening Experiments (RISE) application written in Pipeline Pilot (Accelrys, v. 8.5) and the R program (R Development Core Team).
Dose-response curves were calculated by regressing the median percent inhibition obtained over triplicate experiments to log 10-transformed concentrations. Non-linear regression was then performed using the R drc package with the four parameter log-logistic function (LL2.4) (Ritz and Streibig, 2009). Curves were fit under three different constraints: (1) all parameters free, (2) high response fixed to 100, (3) low response fixed to 0; and the best fit from these three nested models was selected using the anova.drc function.

MV-4-11 = test: anti-proliferative activity; format: cell-based; conditions: Homo sapiens, MV4-11; Table 7
Procedure: as §4, §5

[2] = BRD3-BD1, Table 11 additional modifications, read-out: 3.1 EC50
[3] = BRDT, Table 11 additional modifications, read-out: BRDT EC50
[4] = BRD2-BD2, Table 11 additional modifications, read-out: 2.2 EC50
[5] = BRD2-BD1, Table 11 additional modifications, read-out: 2.1 EC50
[6] = Table 6, read-out: EC50 (μM) BRD3(1)
[7] = Table 6, head names no target, BRDT by comparison with Table 4, read-out: EC50
[8] = Table 6, read-out: EC50 (μM) BRD2(2)
[9] = Table 6, read-out: EC50 (μM) BRD2(1)

Chain of BRD3-BD1 (Q15059 34-140): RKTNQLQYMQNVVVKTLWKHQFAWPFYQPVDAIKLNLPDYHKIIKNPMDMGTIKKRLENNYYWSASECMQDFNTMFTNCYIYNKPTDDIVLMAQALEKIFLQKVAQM
Chain of BRD3(1) (Q15059 34-140): as above
Chain of BRD2-BD1 (P25440 74-180): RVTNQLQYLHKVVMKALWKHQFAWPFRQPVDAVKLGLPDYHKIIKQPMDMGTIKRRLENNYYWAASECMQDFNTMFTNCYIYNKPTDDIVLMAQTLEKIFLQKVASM
Chain of BRD2(1) (P25440 74-180): as above
Chain of BRD2-BD2 (P25440 344-453): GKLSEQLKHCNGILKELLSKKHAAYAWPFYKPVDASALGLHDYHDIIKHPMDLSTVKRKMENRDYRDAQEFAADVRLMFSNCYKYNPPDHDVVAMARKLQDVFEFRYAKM
Chain of BRD2(2) (P25440 344-453): as above
Chain of BRD3(2) (Q15059 306-415): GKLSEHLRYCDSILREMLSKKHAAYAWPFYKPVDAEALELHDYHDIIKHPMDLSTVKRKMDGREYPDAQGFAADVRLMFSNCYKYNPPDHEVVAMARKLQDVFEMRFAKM

SMILES | Kd (BRD2(1)) [nM] | [2(1)/2(2)] (BRD2(2)) | Kd (BRD2(2)) [nM] | T(1)/T(2) (BRDT(2)) | Kd (BRDT(2)) [nM] | Kd (BRDT(1)) [nM] | 3(1)/3(2) (BRD3(2)) | Kd (BRD3(2)) [nM] | Kd (BRD3(1)) [nM] | Kd (BRD4(1)) [nM] | 4(1)/4(2) (BRD4(2)) | Kd (BRD4(2)) [nM] | EC50 ([1]; HD-MB03, Table 7) [µM] | EC50 (HDMB03 cells; HD-MB03, Table 7) [µM] | EC50 (MV-4-11) [µM] | EC50 (BRD3-BD1; [6]) [µM] | EC50 (BRDT; [7]) [nM] | [2(1)/2(2)] (BRD2-BD2; Table 6, ratio of EC50) | EC50 (BRD2-BD2; [8]) [µM] | EC50 (BRD2-BD1; [9]) [µM] | also measured
CC(=O)Nc1cccc(-c2ccc3c(c2)[C@H](Nc2ccc4ncccc4c2)C[C@H](C)N3C(C)=O)c1 [compound 13] | 28 | 14.0 | 2 | 2.9 | 6.9 | 20 | 28.2 | 0.78 | 22 | 17 | 13.1 | 1.3 | – | – | – | – | – | – | – | – | EC50 (BRD4-BD2): 60000 nM; EC50 (BRD3-BD1; [2]): 1.1 µM; EC50 (BRDT; [3]): 2500 nM; EC50 (BRD2-BD2; [4]): 59 µM; 2.1/2.2 (BRD2-BD2): 0.015; EC50 (BRD4-BD1): 1300 nM; EC50 (BRD2-BD1; [5]): 0.88 µM
CC(=O)Nc1cccc(-c2ccc3c(c2)[C@H](Nc2ccccc2C(F)(F)F)C[C@H](C)N3C(C)=O)c1 [compound 41] | 790 | 49.4 | 16 | 9.4 | 31 | 290 | 138.9 | 3.6 | 500 | 410 | 64.1 | 6.4 | – | – | – | – | – | – | – | – | EC50 ([1]; HD-MB03, Table 5): 6.2 µM; EC50 (HDMB03 cells; HD-MB03, Table 5): 1.6 µM; EC50 (BRD3-BD1; Table 4, read-out: BRD3(1)): 20 µM; EC50 (BRDT; Table 4, read-out: BRDT EC50): 53000 nM; [2(1)/2(2)] (BRD2-BD2; Table 4, ratio of EC50): 57; EC50 (BRD2-BD2; Table 4, read-out: EC50 (μM) BRD2(2)): 0.35 µM; EC50 (BRD2-BD1; Table 4, read-out: EC50 (μM) BRD2(1)): 70 µM
COC(=O)c1ccc(N[C@@H]2C[C@H](C)N(C(C)=O)c3ccc(-c4cccc(NCc5ccoc5)c4)cc32)cc1 [compound 43] | – | – | – | – | – | – | – | – | – | – | – | – | 0.88 | 1.5 | 0.007 | 0.41 | 1200 | 10 | 0.05 | 0.51 | –
CCCCCNc1cccc(-c2ccc3c(c2)[C@H](Nc2ccc(C(=O)OC)cc2)C[C@H](C)N3C(C)=O)c1 [compound 44] | – | – | – | – | – | – | – | – | – | – | – | – | 0.3 | 0.39 | 0.035 | 2.1 | 7400 | 22.5 | 0.12 | 2.7 | –
CCCCNc1cccc(-c2ccc3c(c2)[C@H](Nc2ccc(C(=O)OC)cc2)C[C@H](C)N3C(C)=O)c1 [compound 45] | – | – | – | – | – | – | – | – | – | – | – | – | 0.38 | 0.56 | 0.083 | 2.1 | 7300 | 16.25 | 0.16 | 2.6 | –
CCCNc1cccc(-c2ccc3c(c2)[C@H](Nc2ccc(C(=O)OC)cc2)C[C@H](C)N3C(C)=O)c1 [compound 46] | – | – | – | – | – | – | – | – | – | – | – | – | 0.34 | 0.35 | 0.018 | 1 | 2600 | 7.6 | 0.17 | 1.3 | –
COC(=O)c1ccc(N[C@@H]2C[C@H](C)N(C(C)=O)c3ccc(-c4ccnn4C)cc32)cc1 [compound 49] | 23 | 13.5 | 1.7 | 6.1 | 2.8 | 17 | 6.9 | 1.6 | 11 | 14 | 12.7 | 1.1 | – | – | – | – | – | – | – | – | EC50 ([1]; HD-MB03, Table 9, c-Myc expression inhibition in HDMB03 cells): 5.1 µM; EC50 (HDMB03 cells; HD-MB03, Table 9, cancer cell proliferation inhibition): 1.6 µM; EC50 (BRD3-BD1; Table 8, read-out: BRD3(1)): 0.9 µM; EC50 (BRDT; Table 8, head names no target, BRDT by comparison with Table 4, read-out: EC50): 4400 nM; EC50 (BRD2-BD2; Table 8, read-out: EC50 (μM) BRD2(2)): 0.14 µM; EC50 (BRD2-BD1; Table 8, read-out: EC50 (μM) BRD2(1)): 1.4 µM
CCCOc1cccc(-c2ccc3c(c2)[C@H](Nc2ccc(C(=O)OC)cc2)C[C@H](C)N3C(C)=O)c1 [compound 56] | 160 | 19.5 | 8.2 | 4.1 | 23 | 95 | 23.0 | 4.3 | 99 | 140 | 31.8 | 4.4 | – | – | – | – | – | – | – | – | EC50 (BRD3-BD1; [2]): 8.1 µM; EC50 (BRDT; [3]): 12000 nM; EC50 (BRD2-BD2; [4]): 0.5 µM; 2.1/2.2 (BRD2-BD2): 16; EC50 (BRD4-BD1): > 63000 nM; EC50 (BRD2-BD1; [5]): 8.2 µM
CC(=O)N1c2ccc(-c3cccc(-n4cccn4)c3)cc2[C@H](Nc2ccc(Cl)cc2)C[C@@H]1C [compound 136] | 350 | 21.9 | 16 | 3.3 | 66 | 220 | 29.3 | 7.5 | 220 | 270 | 35.1 | 7.7 | – | – | – | – | – | – | – | – | EC50 (BRD4-BD2): 250 nM; EC50 (BRD3-BD1; [2]): 10 µM; EC50 (BRDT; [3]): 10000 nM; EC50 (BRD2-BD2; [4]): 0.19 µM; 2.1/2.2 (BRD2-BD2): 63; EC50 (BRD4-BD1): 17000 nM; EC50 (BRD2-BD1; [5]): 17 µM
